Legend:
human dermal fibroblasts = assay: Mitochondrial metabolism in human dermal fibroblast cultures (MTT assay); format: cell-based; conditions: for inhibition of mitochondrial metabolism / stimulatory effect on mitochondrial metabolism / stimulation of mitochondrial metabolism: freshly prepared; for inhibition of mitochondrial metabolism: 100 μg/mL and 1000 μg/mL; for stimulatory effect on mitochondrial metabolism: concentrations tested; for effect on mitochondrial metabolism: preincubated solutions (pH 4.0, five days)
Procedure: The purpose of this assay was to determine the effect creatine ascorbate, creatine monohydrate and creatine pyruvate on the mitochondrial metabolism on the entire cell culture using an MTT assay. The MTT assay measures the activity of succinate dehydrogenase, a key enzyme in the respiratory electron transport chain in mitochondria.
Two sets of aqueous solutions of 10 mg/mL of creatine ascorbate, creatine monohydrate, creatine pyruvate, ascorbic acid and magnesium ascorbyl phosphate were prepared in Type I water. The first set of solutions were prepared immediately before being added to cell cultures. The second set of solutions were preincubated at pH 4.0 (±0.1) five days, then the solutions were lyophilized and the substrates were redissolved in water at 10 mg/mL prior to being added to the cell cultures. Normal human dermal fibroblasts (passage 5, lot number 7F1254, Cambrex, Walkersville, Md.) were seeded in a 96-well plate in phenol red-free DMEM medium (high glucose) containing 2.5% fetal calf serum at 2500 cells per well and test materials, both freshly prepared solutions and preincubated solutions, were added 24 hours later. At the end of the incubation period MTT (3-(4,5-dimethylthiazol-2-yl)-2,5-diphenyltetrazolium bromide) was added to the cell cultures and incubation was pursued for an additional three hours. Culture media were then discarded, the cells were rinsed and the intracellular MTT reduction product, formazan, was solubilized in ethanol/acetic acid. The colorimetric signal proportional to the mitochondrial activity in the cell cultures was measured with a microplate spectrophotometer at 570 nm. For references describing this method, see Berridge et al. “Arch. Biochem. Biophys.” 303:474-482 (1993) and Murimaki et al. “Biochem. Pharmacol.” 44:2191-2197 (1992).

[1] = test system: p53 expression in human dermal fibroblasts; assay: p53 expression induced by UVB irradiation of human dermal fibroblasts (sandwich ELISA); format: cell-based; conditions: 50 μg/ml; UVB 0.15 mW/cm^2; 4 hours accumulation
Procedure: Confluent human dermal fibroblasts were trypsinized, counted and plated at 750,000 cells/well in eight 6-well plates in phenol-free DMEM medium (4 g/L glucose) supplemented with 5% serum. After three hours, creatine ascorbate, creatine monohydrate, creatine pyruvate, ascorbic acid and magnesium ascorbyl phosphate in a concentration of 50 μg/ml were added and cells were incubated overnight at 37° C. in 5% CO2 atmosphere. After 24 hours, p53 protein was induced by UVB irradiation at 0.15 mW/cm^2 for […] and was allowed to accumulate for 4 hours. The cells were then lyzed and total p53 was quantified by sandwich ELISA. The p53 values were standardized with regard to total protein values determined with Bradford reagent. For a description of this assay, see Carlisle et al. “Toxicological Sciences” 55:60 (2000).

[2] = test system: Clostridium collagenase IV; assay: Metalloproteinase (collagenase) activity, Enzcheck kit with quenched fluorescent gelatin; format: biochemical; conditions: after incubation of 60 minutes
Procedure: Metalloproteinase (collagenase) activity was measured with Enzcheck kit from Molecular Probes using quenched fluorescent gelatin and Clostridium collagenase IV, a generic collagenase. Creatine ascorbate, creatine monohydrate, creatine pyruvate, ascorbic acid and magnesium ascorbyl phosphate, in concentrations of 1000 μg/mL, 100 μg/mL and 10 μg/mL, were incubated in the presence of a collagenase substrate (quenched fluorescing-linked gelatin) and in the presence of the proteolytic enzyme. Phenantroline, a potent metalloproteinase inhibitor was used as a positive control. The kinetics of the release of the digested, fluorescent gelatin were measured at excitation/emission wavelengths of 485/530 nm.

[3] = Stability of aqueous solutions at pH 4.0 (HPLC); format: physicochemical; conditions: 10 mg/mL, pH 4.0, 5 days at room temperature
Procedure: Aqueous solutions of 10 mg/mL of creatine ascorbate, creatine monohydrate, creatine pyruvate, ascorbic acid and magnesium ascorbyl phosphate were prepared in Type I water and brought to pH 4.0 (±0.1) by adding acetic acid (creatine ascorbate, creatine monohydrate and magnesium ascorbyl phosphate) or sodium hydroxide (ascorbic acid and creatine pyruvate). The solutions were incubated for 5 days at room temperature and were subsequently lyophilized, redissolved within 60 minutes of analysis and analyzed by isocratic HPLC on a C18 RF column (250 mm×4.6 mm) at 1 mL/min.

[4] = test system: type I collagen levels in human dermal fibroblasts; assay: Type I collagen in human dermal fibroblast conditioned medium (sandwich ELISA); format: cell-based; conditions: for levels of type I collagen: freshly prepared solutions
Procedure: Normal human dermal fibroblasts (passage 5, lot number 7F1245, Cambrix, Walkersville, Md.) were seeded in a 96-well plate in DMEM medium (high glucose) containing 5% fetal calf serum and grown to late subconfluent stage. Two sets of aqueous solutions of 10 mg/mL of creatine ascorbate, creatine monohydrate, creatine pyruvate, ascorbic acid and magnesium ascorbyl phosphate were prepared in Type I water. The first set of solutions were prepared immediately before being added to cell cultures. The second set of solutions were preincubated at pH 4.0 (±0.1) five days, then the solutions were lyophilized and the substrates were redissolved in water at 10 mg/mL prior to being added to the cell cultures. Both the freshly prepared solutions and the solutions of preincubated test materials were administered to the cells, and cell culture conditioned media was harvested 5 days after the start of the experiment and tested for type I collagen by sandwich ELISA using affinity purified antibodies, followed by streptavidin-avidin-HRP conjugate and ABTS, according to standard ELISA protocol. The colorimetric signal proportional to collagen content was measured with a microplate spectrophotometer at 405 nm. For references describing this method, see Dobek et al. “J. Dermatol. Sci.” 8:18 (1994) and Zhao et al. “Phytomedicine” 12:132 (2005).

[5] = test system: UV-induced lipid peroxidation; assay: UV-induced lipid peroxidation of lecithin dispersions (TBARS); format: biochemical; conditions: 500 μg/mL; UVB irradiation 3 hours
Procedure: Test materials were added to dispersions of lecithin (a natural phospholipid) and irradiated with UVB light (11,000 μW/cm^2 at the source). After 3 hours, trichloroacetic acid and thiobarbituric acids were added and the concentration of Thiobarbituric Acid Reactive Substance (TBARS), such as malondialdehyde, was measured spectroscopically (malonaldehyde is a breakdown product generated spontaneously from oxidized lipid) at 550 nm using an UV microplate reader. For references describing this method, see Pelle et al. “Arch. Biochem. Biophys.” 283:234-40 (1990); Wang et al. “J. Ethnopharmacol.” 82:169-175 (2002).

Mushroom tyrosinase = assay: Tyrosinase activity in vitro (L-Dopa substrate); format: biochemical; conditions: for inhibition of tyrosinase activity compared to the control: 5 μg/mL
Procedure: Tyrosinase activity was measured according to the method described by Pomerantz “Biochem. Biophys. Res. Commun.” 16(2):188-194 (1964). Mushroom tyrosinase stock solution was prepared in PBS at 2000 U/mL and stored at […] in 1 mL aliquots. Final concentration was 5 U/well (25 U/mL). Creatine ascorbate, creatine monohydrate, creatine pyruvate, ascorbic acid and magnesium ascorbyl phosphate were dissolved in PBS and further dilutions were made with Type I water. L-Dopa stock solution was 20 mM. The tyrosinase substrate was prepared in PBS. The assays were performed in a 96-well microtiter plates and read at 490 nm.

[6] = highest concentration, 1000 μg/mL

Compound | inhibition of mitochondrial metabolism (human dermal fibroblasts) | stimulatory effect on mitochondrial metabolism (human dermal fibroblasts) | effect on p53 expression induced by UVB irradiation [1] | inhibition of collagenase activity compared to the control [2] | loss of the absorbance peak / decrease of absorption [3] | effect on mitochondrial metabolism (human dermal fibroblasts) | levels of type I collagen ([4]; 10 μg/mL and 100 μg/mL) | levels of type I collagen [4, 6] | inhibition of tyrosinase activity compared to the control (Mushroom tyrosinase) | also measured
O=C1O[C@H]([C@@H](O)CO)C(O)=C1O [ascorbic acid, reference compound] | inhibited mitochondrial metabolism | did not have a stimulatory effect | no effect | 39% | 28% |  |  |  |  | inhibitory effect on mitochondrial metabolism (human dermal fibroblasts; preincubated, concentration not given): 24%
O=C1O[C@H]([C@@H](O)CO)C([O-])=C1OP(=O)([O-])[O-].O=C1O[C@H]([C@@H](O)CO)C([O-])=C1OP(=O)([O-])[O-].[Mg+2].[Mg+2].[Mg+2] [magnesium ascorbyl phosphate, reference compound] |  | greatest stimulatory activity | significantly inhibited | Neither creatine monohydrate nor magnesium ascorbyl phosphate showed any inhibitory activity |  | exhibited stimulation |  |  |  | levels of type I collagen ([4]; all concentrations, 5 days): large increase; stimulation of type I collagen ([4]; results of both assays (fresh and preincubated)): strong stimulation
creatine ascorbate | inhibited mitochondrial metabolism | did not have a stimulatory effect | significantly inhibited | 11.5% |  | superior to preincubated ascorbic acid | significantly increased | significantly lower | 26% | inhibition of lipid peroxidation [5]: 21%; stimulation of type I collagen compared with reference substances ([4]; 100 μg/mL): comparable to that of magnesium ascorbyl phosphate and better than ascorbic acid; stimulation of type I collagen levels above the non-treated control (water) ([4]; dose-dependent, conclusion of both assays (fresh and preincubated)): about 50%; tyrosinase inhibitory activity compared with reference substances (Mushroom tyrosinase): lower than the activity of ascorbic acid and was similar to the activity of magnesium ascorbyl phosphate; inhibitory effect on the tyrosinase activity (Mushroom tyrosinase; 500 μg/mL and 50 μg/mL): significant inhibitory effect; degradation in aqueous solution [3]: minor to no degradation
creatine pyruvate | 17% |  | significantly inhibited | 27% | 42% | not to be inhibitory | moderately increased | better than creatine ascorbate and ascorbic acid | no inhibition | inhibition of tyrosinase activity (Mushroom tyrosinase; 50 μg/mL): 10%; inhibition of tyrosinase activity (Mushroom tyrosinase; 500 μg/mL): 100%
CN(CC(=O)O)C(=N)N.O [creatine monohydrate] |  |  | significantly inhibited | Neither creatine monohydrate nor magnesium ascorbyl phosphate showed any inhibitory activity |  | stimulated mitochondrial metabolism, although not to the extent of the freshly prepared creatine monohydrate | moderately increased | better than creatine ascorbate and ascorbic acid |  | stimulation of mitochondrial metabolism (human dermal fibroblasts; 10 μg/mL): 0%; stimulation of mitochondrial metabolism (human dermal fibroblasts; 100 μg/mL): 15%; stimulation of mitochondrial metabolism (human dermal fibroblasts; 1000 μg/mL): 28%
